These results are taken from patent publication US20030114360A1 (priority 2000, published 2003).

One assay deals with PrP-AP. Type of assay: binding.
Assay [1] concerns the target PrP cell surface receptor on H4 cells (ATCC HTB-148).
Assay [2] concerns the target PrP cell surface receptor on COS-7 cells (ATCC CRL-1651).

Regarding `OC[C@@H](O)[C@@H](O)[C@H](O)[C@H](O)CO` [mannitol], in the assay with PrP-AP, the “inhibition of PrP-AP binding to cell surfaces” value was “does not participate in the inhibition of binding”.
Copaxone: the IC50 in assay [1] and in assay [2] was 0.5 µM each time.
Regarding GGSRYPGQGSP [control 11 mer], in the assay on PrP-AP, the “inhibition of PrP-AP binding to cell surfaces by peptide” value was “Only the peptide with the PrP amino terminal sequence inhibited”.
Same read-out and setting: next, KKRPKPGGWNT [N-term 11 mer]: “inhibited”.
